Experimental data taken from patent publication US6914045B2, “Glycopeptide antibiotics” (Wyeth Holdings Corporation, priority 2001, dated 2005).

What was measured:
Test in all cases: in vitro antibacterial evaluation, MIC by broth dilution
Type in all cases: cell-based
[1] = system: Staphylococcus sp.; details: broth dilution, 18 hours at 35° C.
Method in brief: (§1)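 Broth dilution per NCCLS standard M7-A2 in Muller-Hinton II […], with an inoculum of 5×10^5 CFU/mL and antibiotic spanning 64-0.06 μg/mL. The MIC is the lowest concentration that inhibits growth of the organism.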

[2] = system: Escherichia coli; details: 18 hours at 35° C.
Method in brief: as §1

[3] = system: Streptococcus sp.; details: broth dilution, 18 hours at 35° C.
Method in brief: as §1

[4] = system: Enterococcus sp.; details: broth dilution, 18 hours at 35° C.
Method in brief: as §1

CC(C)=CCCC(C)CC1OCC2OC(OC3C(CO)OC(Oc4ccc(CC5NC(=O)C(C(C)c6ccccc6)NC(=O)CNC(=O)C(CO)NC(=O)C(C(O)C6CNC(=N)N6C6OC(CO)C(O)C(O)C6O)NC(=O)C(C(O)C6CNC(=N)N6)NC5=O)cc4)C(O)C3O)C(O)C(O)C2O1 (stereo not shown) [Example 126]
0.12 µg/mL: MIC Streptococcus pyogenes (GC 4563) ([3]; Streptococcus pyogenes (GC 4563)) | MIC Streptococcus pyogenes (GC 4563) ([3]; strain GC 4563)
8 µg/mL: MIC Staphylococcus aureus (ATCC 29213) [1] | MIC Staphylococcus aureus (GC 1131) [1] | MIC Staphylococcus aureus (GC 3051) [1] | MIC Staphylococcus aureus (GC 3053) [1] | MIC Staphylococcus aureus (GC 4541) [1] | MIC Staphylococcus aureus (GC 4542) [1] | MIC Staphylococcus aureus (GC 4544) [1] | MIC Staphylococcus aureus (GC 4545) [1] | MIC Staphylococcus aureus (GC 1131) ([1]; inoculum 5×10^5 CFU/mL, strain GC 1131) | MIC Staphylococcus aureus (ATCC 29213) ([1]; strain ATCC 29213) | MIC Staphylococcus aureus (GC 3051) ([1]; strain GC 3051) | MIC Staphylococcus aureus (GC 3053) ([1]; strain GC 3053) | MIC Staphylococcus aureus (GC 4541) ([1]; strain GC 4541) | MIC Staphylococcus aureus (GC 4542) ([1]; strain GC 4542) | MIC Staphylococcus aureus-SMITH (GC 4543) ([1]; strain GC 4543) | MIC Staphylococcus aureus (GC 4544) ([1]; strain GC 4544) | MIC Staphylococcus aureus (GC 4545) ([1]; strain GC 4545) | MIC Staphylococcus haemolyticus (GC 4546) ([1]; strain GC 4546) | MIC Coagulase Negative Staphylococcus (GC 4547) ([1]; strain GC 4547) | MIC Coagulase Negative Staphylococcus (GC 4548) ([1]; strain GC 4548) | MIC Coagulase Negative Staphylococcus (GC 4549) ([1]; strain GC 4549) | MIC Coagulase Negative Staphylococcus (GC 4551) ([1]; strain GC 4551) | MIC Coagulase Negative Staphylococcus (GC 6257) ([1]; strain GC 6257) | MIC Staphylococcus aureus-SMITH (GC 4543) ([1]; strain SMITH GC 4543) | MIC Escherichia coli (GC 4560) ([2]; strain GC 4560) | MIC Enterococcus avium (GC 4558) ([4]; Enterococcus avium (GC 4558)) | MIC Enterococcus faecalis (ATCC 29212) ([4]; Enterococcus faecalis (ATCC 29212)) | MIC Enterococcus faecalis (GC 2242) ([4]; Enterococcus faecalis (GC 2242)) | MIC Enterococcus faecalis (GC 2691) ([4]; Enterococcus faecalis (GC 2691)) | MIC Enterococcus faecalis (GC 3059) ([4]; Enterococcus faecalis (GC 3059)) | MIC Enterococcus faecalis (GC 4552) ([4]; Enterococcus faecalis (GC 4552)) | MIC Enterococcus faecalis (GC 4553) ([4]; Enterococcus faecalis (GC 4553)) | MIC Enterococcus faecalis (GC 4554) ([4]; Enterococcus faecalis (GC 4554)) | MIC Enterococcus faecalis (GC 6189) ([4]; Enterococcus faecalis (GC 6189)) | MIC Enterococcus faecium (GC 2243) ([4]; Enterococcus faecium (GC 2243)) | MIC Enterococcus faecium (GC 4556) ([4]; Enterococcus faecium (GC 4556)) | MIC Enterococcus faecium (GC 4557) ([4]; Enterococcus faecium (GC 4557)) | MIC Enterococcus faecalis (ATCC 29212) ([4]; strain ATCC 29212) | MIC Enterococcus faecalis (GC 2242) ([4]; strain GC 2242) | MIC Enterococcus faecium (GC 2243) ([4]; strain GC 2243) | MIC Enterococcus faecalis (GC 2691) ([4]; strain GC 2691) | MIC Enterococcus faecalis (GC 3059) ([4]; strain GC 3059) | MIC Enterococcus faecalis (GC 4552) ([4]; strain GC 4552) | MIC Enterococcus faecalis (GC 4553) ([4]; strain GC 4553) | MIC Enterococcus faecalis (GC 4554) ([4]; strain GC 4554) | MIC Enterococcus faecium (GC 4556) ([4]; strain GC 4556) | MIC Enterococcus faecium (GC 4557) ([4]; strain GC 4557) | MIC Enterococcus avium (GC 4558) ([4]; strain GC 4558) | MIC Enterococcus faecalis (GC 6189) ([4]; strain GC 6189)
64 µg/mL: MIC Escherichia coli (ATCC 25922) ([2]; strain ATCC 25922) | MIC Escherichia coli (GC 4559) ([2]; strain GC 4559)
1 µg/mL: MIC Streptococcus agalactiae (GC 4564) ([3]; Streptococcus agalactiae (GC 4564)) | MIC Streptococcus agalactiae (GC 4564) ([3]; strain GC 4564)
<0.06 µg/mL: MIC Streptococcus pneumoniae (ATCC 6301) ([3]; Streptococcus pneumoniae (ATCC 6301)) | MIC Streptococcus pneumoniae (GC 1894) ([3]; Streptococcus pneumoniae (GC 1894)) | MIC Streptococcus pneumoniae (GC 4565) ([3]; Streptococcus pneumoniae (GC 4565)) | MIC Streptococcus pneumoniae (ATCC 6301) ([3]; strain ATCC 6301) | MIC Streptococcus pneumoniae (GC 1894) ([3]; strain GC 1894) | MIC Streptococcus pneumoniae (GC 4565) ([3]; strain GC 4565)
